Publication PMC8350395, “Hsa-miR-4277 Decelerates the Metabolism or Clearance of Sorafenib in HCC Cells and Enhances the Sensitivity of HCC Cells to Sorafenib by Targeting cyp3a4” (Frontiers in Oncology, 2021)
Like-named read-outs stand apart in the source and are kept apart here.

How the values were obtained:
[1] = test system: MHCC97-H cells; assay: Assessment of cell survival (MTT); format: cell-based; settings: Homo sapiens, MHCC97H, 48 h
Method: (§1) After transfection or treated with potential inhibitor of cyp3a4, HCC cells were treated with a series concentrations of sorafenib, lenvatinib, cabozantinib, regorafenib, anlotinib, or apatinib (10 μmol/L, 3 μmol/L, 1 μmol/L, 0.3 μmol/L, 0.1 μmol/L, 0.03 μmol/L, or 0.01 μmol/L). After 48 h, MTT was performed to measure ell survival, and the IC50 value of each agent was calculated ([36]–[38]).
The *P < 0.05 being statistically significant between groups.

[2] = in vitro; settings: human
Method: (§2) HCC cells were used to examine the rate of elimination of sorafenib ([18], [19], [34], [35]). For cell-based experiments, HCC cells were treated with 1 μmol/L of sorafenib for 12 h. After treatment, the cells were harvested at a series of time-points. For in vivo experimentation, HCC cells were cultured and subcutaneously injected into mice to generate tumors. When tumor volume reached 2000 mm^3, a solution of sorafenib was directly injected into the tumors. After injection, the tumors were excised at a series of time-points. Next, sorafenib was extracted from MHCC97-H cells or tumors using the acetonitrile (ACN). The sustaining amount of sorafenib at each time-point was measured using liquid chromatography–mass spectrometry/mass spectrometry (LC-MS/MS) and the in vitro/in vivo half-life of sorafenib was determined ([18], [19], [34], [35]).
(§3) SPSS 9.0 statistical software (IBM Corporation, Armonk, NY, USA) was used for all statistical analyses. Statistics were calculated using two-way ANOVA with the Bonferroni correction. IC50 values and the half-lie values (t1/2 values) were calculated using Origin software (Origin 6.1; OriginLab Corporation, Northampton, MA, USA). The *P < 0.05 being statistically significant between groups. The heat-map of the qPCR results were obtained according to the methods by Zhou et al. ([41]) and Yin et al. ([42]).

[3] = Assessment of sorafenib elimination in cultured HCC cells (LC-MS/MS); format: in vitro ADME; settings: human, read-out: t1/2 values (converted)
Method: as §2, §3

[4] = test system: MHCC97-H cells; assay: Nude mouse subcutaneous tumor model; format: in vivo, nude mice
Method: All animal experiments were reviewed approved by the Institutional Animal Care and Use Committee, the Fifth Medical Center, Chinese PLA. All animal experiments were performed in accordance with the UK Animals (Scientific Procedures) Act, 1986 and the associated guidelines. Female nude mice were purchased from the Si-Bei-Fu Corporation, Beijing China. Following transfection, MHCC97-H cells were prepared as a single-cell suspension and subcutaneously injected into nude mice ([39], [40]). The mice orally received sorafenib once every two days. Tumors from the mice were harvested, and the volumes and weights were measured ([39], [40]).

[5] = test system: SMMC-7721; assay: Assessment of cell survival (MTT); format: cell-based; settings: Homo sapiens, SMMC-7721, 48 h
Method: as §1, §3

[6] = test system: BEL-7402; assay: Assessment of cell survival (MTT); format: cell-based; settings: Homo sapiens, Bel-7402, 48 h
Method: as §1, §3

[7] = in vivo; settings: nude, mouse, in vivo, t1/2 of Sorafenib
Method: as §2, §3

[8] = test system: subcutaneous tumors formed by MHCC97-H cells; assay: in vivo
Method: as §2, §3

[9] = test system: patients with advanced HCC; format: in vivo, human; settings: advanced HCC patients receiving sorafenib
Description: The endogenous mRNA levels of cyp3a4 in HCC clinical specimens were identified using quantitative polymerase chain reaction (qPCR) in accordance with methods described by Wang et al. ([20]) and Ma et al. ([20], [25]). […] The results (the relative expression level [folds of β-Actin]) of PXR or CAR was shown as heat-map.

[10] = control miRNA, read-out: IC50 values of the agents on MHCC97-H cells
[11] = miR-4277 + CYP3A4^Mut, read-out: IC50 values of the agents on MHCC97-H cells
[12] = miR-4277 + CYP3A4^Mut-1, read-out: IC50 values of the agents on MHCC97-H cells
[13] = miR-4277 + CYP3A4^Mut-2, read-out: IC50 values of the agents on MHCC97-H cells
[14] = miR-4277, read-out: IC50 values of the agents on MHCC97-H cells
[15] = CYP3A4 mRNA expression High (n = 26)
[16] = CYP3A4 mRNA expression Low (n = 26)

Molecule `COc1cc2c(Oc3ccc4[nH]c(C)cc4c3F)ccnc2cc1OCC1(N)CC1` [Anlotinib] has an IC50 [1, 10] of 750 ± 30 nM, an IC50 [1, 11] of 780 ± 550 nM and an IC50 [1, 12] of 300 ± 120 nM. For the same molecule, the IC50 [1, 13] was 450 ± 350 nM and the IC50 [1, 14] was 100 ± 10 nM.

For `N#CC1(c2ccc(NC(=O)c3cccnc3NCc3ccncc3)cc2)CCCC1` [Apatinib], the IC50 [1, 10] was 960 ± 330 nM, the IC50 [1, 11] was 980 ± 370 nM and the IC50 [1, 12] was 520 ± 270 nM. The IC50 [1, 13] was 460 ± 300 nM and the IC50 [1, 14] was 260 ± 70 nM.

Molecule `COc1cc2nccc(Oc3ccc(NC(=O)C4(C(=O)Nc5ccc(F)cc5)CC4)cc3)c2cc1OC` [Cabozantinib] has an IC50 [1, 10] of 510 ± 190 nM, an IC50 [1, 11] of 560 ± 150 nM and an IC50 [1, 12] of 250 ± 60 nM. It also gave an IC50 [1, 13] of 300 ± 210 nM and an IC50 [1, 14] of 100 ± 40 nM.

For `COc1cc2nccc(Oc3ccc(NC(=O)NC4CC4)c(Cl)c3)c2cc1C(N)=O` [Lenvatinib], the IC50 [1, 10] was 550 ± 200 nM, the IC50 [1, 11] was 600 ± 200 nM and the IC50 [1, 12] was 410 ± 10 nM. For the same molecule, the IC50 [1, 13] was 280 ± 110 nM and the IC50 [1, 14] was 120 ± 60 nM.

Work on `CNC(=O)c1cc(Oc2ccc(NC(=O)Nc3ccc(Cl)c(C(F)(F)F)c3)c(F)c2)ccn1` [Regorafenib] yielded an IC50 [1, 10] of 670 ± 490 nM, an IC50 [1, 11] of 710 ± 280 nM and an IC50 [1, 12] of 330 ± 320 nM. It also gave an IC50 [1, 13] of 350 ± 90 nM and an IC50 [1, 14] of 220 ± 40 nM.

In the case of `CNC(=O)c1cc(Oc2ccc(NC(=O)Nc3ccc(Cl)c(C(F)(F)F)c3)cc2)ccn1` [Sorafenib], the half-life at 1 μmol/L [2] is reported as 21.6 ± 1.34 h, the half-life at 1 μmol/L ([2]; MHCC97-H cells (HCC cell line)) is reported as 23.6 ± 0.7 h and the half-life at 1 μmol/L ([2]; MHCC97-H cells (HCC cell line) transfected with miR-4277) is reported as 38.5 ± 9.97 h. For the same molecule, the half-life at 1 μmol/L ([2]; MHCC97-H cells (HCC cell line) with miR-4277 + CYP3A4^Mut) was 19.9 ± 2.71 h, the half-life at 1 μmol/L ([2]; MHCC97-H cells (HCC cell line) with miR-4277 + CYP3A4^Mut-1) was 22.1 ± 6.59 h and the half-life at 1 μmol/L ([2]; MHCC97-H cells (HCC cell line) with miR-4277 + CYP3A4^Mut-2) was 24.7 ± 8.63 h. It also gave a half-life at 1 μmol/L ([3]; BEL-7402 cells (HCC cell line) with miR-4277 + CYP3A4^Mut, BEL-7402, miR-4277 + CYP3A4^Mut) of 26.4 ± 3.79 h, a half-life at 1 μmol/L ([3]; BEL-7402 cells (HCC cell line) with miR-4277, BEL-7402, miR-4277) of 42.4 ± 3.33 h and a half-life at 1 μmol/L ([3]; BEL-7402 cells (HCC cell line), BEL-7402, control) of 28.2 ± 8.67 h. It also gave a half-life at 1 μmol/L ([3]; HepG2 cells (HCC cell line) with miR-4277 + CYP3A4^Mut, HepG2, miR-4277 + CYP3A4^Mut) of 25.7 ± 4.47 h, a half-life at 1 μmol/L ([3]; HepG2 cells (HCC cell line) with miR-4277, HepG2, miR-4277) of 56.4 ± 1.9 h and a half-life at 1 μmol/L ([3]; HepG2 cells (HCC cell line), HepG2, control) of 30.3 ± 3.31 h. It also gave a half-life at 1 μmol/L ([3]; SMMC-7721 cells (HCC cell line) with miR-4277 + CYP3A4^Mut, SMMC-7721, miR-4277 + CYP3A4^Mut) of 27.4 ± 6.93 h, a half-life at 1 μmol/L ([3]; SMMC-7721 cells (HCC cell line) with miR-4277, SMMC-7721, miR-4277) of 46.2 ± 2.88 h and a half-life at 1 μmol/L ([3]; SMMC-7721 cells (HCC cell line), SMMC-7721, control) of 25.7 ± 2.43 h. For the same molecule, the “subcutaneous growth of MHCC97-H cells” value ([4]; 0.5 mg/kg dose of sorafenib, oral, control-transfected cells) was “had no effect”, the “subcutaneous growth of HCC cells (tumor volumes, tumor weights)” value ([4]; oral sorafenib once every two days, indicated doses, nude mice) was “inhibited the subcutaneous growth of HCC cells in a dose-dependent manner” and the IC50 ([5]; SMMC-7721, control) was 1950 ± 540 nM. The IC50 ([5]; SMMC-7721, miR-4277) was 730 ± 330 nM, the IC50 ([5]; SMMC-7721, miR-4277 + CYP3A4^Mut) was 1920 ± 550 nM and the IC50 ([6]; BEL-7402, control) was 1790 ± 180 nM. The IC50 ([6]; BEL-7402, miR-4277) was 280 ± 50 nM, the IC50 ([6]; BEL-7402, miR-4277 + CYP3A4^Mut) was 2880 ± 350 nM and the half-life [7] was 45.7 ± 5.31 h. For the same molecule, the “t1/2 of Sorafenib” value ([8]; nude, mouse, in vivo) was 72.79 ± 7.52 h, the “t1/2 of Sorafenib” value ([8]; subcutaneous MHCC97-H tumors, miR-4277 + CYP3A4^Mut-1, sorafenib injected into tumors) was 52.38 ± 16.19 h and the “t1/2 of Sorafenib” value ([8]; subcutaneous MHCC97-H tumors, miR-4277 + CYP3A4^Mut, sorafenib injected into tumors) was 36.67 ± 12.58 h. It also gave an IC50 ([1]; MHCC97-H cells, control miRNA, read-out: IC50 of Sorafenib) of 700 ± 90 nM, an IC50 ([1]; MHCC97-H cells, miR-4277 + CYP3A4^Mut, read-out: IC50 of Sorafenib) of 920 ± 200 nM and an IC50 ([1]; MHCC97-H cells, miR-4277 + CYP3A4^Mut-1, read-out: IC50 of Sorafenib) of 220 ± 140 nM. It also gave an IC50 ([1]; MHCC97-H cells, miR-4277 + CYP3A4^Mut-2, read-out: IC50 of Sorafenib) of 350 ± 50 nM, an IC50 ([1]; MHCC97-H cells, miR-4277, read-out: IC50 of Sorafenib) of 150 ± 10 nM and an IC50 ([1]; Solvent control (no CYP3A4 inhibitor), read-out: Sorafenib on MHCC97-H IC50 values) of 680 ± 110 nM. The “OS (overall survival)” value [9, 15] was 8.0 M, the “TTP (time to progress)” value [9, 15] was 9.0 M and the “OS (overall survival)” value [9, 16] was 15.0 M. The “TTP (time to progress)” value [9, 16] was 11.0 M.
